Activity calls are given as the source filed them. The calls are words filed in the database; no cut-off is given here.
Columns and labels:
[1] = Cytotoxicity against human RKO-AS45-1 cells after 48 hrs by MTT assay; format: functional, cell-based; details: RKOAS451, 48 h
[2] = target: T1, Sodium/potassium-transporting ATPase (Homo sapiens) (UniProt P05023+P14415+P05026+P50993+P54709+P13637+Q13733+P54710); details: HeLa, 150 nM
Description: Inhibition of Na(+)/K(+) ATPase in human HeLa cells at 150 nM after 24 hrs by immunoblotting

HeLa [3] = test: Inhibition of Na(+)/K(+) ATPase alpha-1 expression in human HeLa cells at 150 nM after 24 hrs by immunoblotting; format: functional, cell-based
[4] = Selectivity index, ratio of IC50 for human WI-26 VA4 cells to IC50 for human RKO-AS45-1 cells; format: functional
HeLa [5] = test: Cytotoxicity against human HeLa cells after 48 hrs by MTT assay; format: functional, cell-based
HeLa [6] = test: Selectivity index, ratio of IC50 for human WI-26 VA4 cells to IC50 for human HeLa cells; format: functional
[7] = target: Sodium/potassium-transporting ATPase subunit alpha-2/alpha-3 (Rattus norvegicus, UniProt P06686+P06687); test: Inhibition of Wistar rat brain Na(+)/K(+) ATPase alpha-2/3 assessed as amount of Pi release after 1 hr by colorimetric method
[8] = target: T1, Sodium/potassium-transporting ATPase (Homo sapiens); test: Inhibition of Na(+)/K(+) ATPase in human HeLa cells at 10 uM after 24 hrs by immunoblotting; format: cell-based
[9] = target: T2, Sodium/potassium-transporting ATPase subunit alpha-1 (Homo sapiens, UniProt P05023); test: Inhibition of human kidney Na(+)/K(+) ATPase alpha-1 assessed as amount of Pi release after 1 hr by colorimetric method
[10] = Cytotoxicity against human WI-26 VA4 cells after 48 hrs by MTT assay; format: cell-based; details: WI26VA4, 48 h
HeLa [11] = test: Inhibition of Na(+)/K(+) ATPase alpha-1 expression in human HeLa cells at 10 uM after 24 hrs by immunoblotting; format: functional, cell-based
[12] = target: T2, Sodium/potassium-transporting ATPase subunit alpha-1; test: Inhibition of human kidney Na(+)/K(+) ATPase alpha-1 assessed as amount of Pi release at 10 uM after 1 hr by colorimetric method
[13] = target: Sodium/potassium-transporting ATPase subunit alpha-2/alpha-3 (Rattus norvegicus) (UniProt P06686+P06687); test: Inhibition of Wistar rat brain Na(+)/K(+) ATPase alpha-2/3 assessed as amount of Pi release at 10 uM after 1 hr by colorimetric method

| Compound | IC50 [1] | inhibition [2] | inhibition (HeLa [3]) | Ratio IC50 [4] | IC50 (HeLa [5]) | Ratio IC50 (HeLa [6]) | IC50 [7] | inhibition [8] | IC50 [9] | IC50 [10] | inhibition (HeLa [11]) | inhibition [12] | inhibition [13] |
| --- | --- | --- | --- | --- | --- | --- | --- | --- | --- | --- | --- | --- | --- |
| C[C@H]1O[C@@H](O[C@H]2[C@@H](O)C[C@H](O[C@H]3[C@@H](O)C[C@H](O[C@H]4CC[C@@]5(C)[C@H](CC[C@@H]6[C@@H]5C[C@@H](O)[C@]5(C)[C@@H](C7=CC(=O)OC7)CC[C@]65O)C4)O[C@@H]3C)O[C@@H]2C)C[C@H](O)[C@@H]1O [DIGOXIN] | 0.42 µM | Active | inactive | – | – | – | – | – | – | – | – | – | – |
| C[C@H]1O[C@@H](O[C@H]2[C@@H](O)C[C@H](O[C@H]3[C@@H](O)C[C@H](O[C@H]4CC[C@@]5(C)[C@H](CC[C@@H]6[C@@H]5C[C@@H](O)[C@]5(C)[C@@H](C7=CC(=O)O/C7=C\c7cccc([N+](=O)[O-])c7)CC[C@]65O)C4)O[C@@H]3C)O[C@@H]2C)C[C@H](O)[C@@H]1O | 41.3 µM | – | – | 1.07 | 65.2 µM | 0.68 | 4 µM | inactive | 11 µM | 44.1 µM | – | – | – |
| C[C@H]1O[C@@H](O[C@H]2[C@@H](O)C[C@H](O[C@H]3[C@@H](O)C[C@H](O[C@H]4CC[C@@]5(C)[C@H](CC[C@@H]6[C@@H]5C[C@@H](O)[C@]5(C)[C@@H](C7=CC(=O)O/C7=C\c7cccc(Cl)c7Cl)CC[C@]65O)C4)O[C@@H]3C)O[C@@H]2C)C[C@H](O)[C@@H]1O | 19 µM | – | – | 0.81 | 42.5 µM | 0.36 | 18 µM | inactive | – | 15.5 µM | – | – | – |
| C[C@H]1O[C@@H](O[C@H]2[C@@H](O)C[C@H](O[C@H]3[C@@H](O)C[C@H](O[C@H]4CC[C@@]5(C)[C@H](CC[C@@H]6[C@@H]5C[C@@H](O)[C@]5(C)[C@@H](C7=CC(=O)O/C7=C\c7ccc(N(C)C)cc7)CC[C@]65O)C4)O[C@@H]3C)O[C@@H]2C)C[C@H](O)[C@@H]1O | 0.48 µM | Active | inactive | 1.35 | 0.26 µM | 2.5 | 20 µM | Active | 9.8 µM | 0.65 µM | inactive | – | – |
| C[C@H]1O[C@@H](O[C@H]2[C@@H](O)C[C@H](O[C@H]3[C@@H](O)C[C@H](O[C@H]4CC[C@@]5(C)[C@H](CC[C@@H]6[C@@H]5C[C@@H](O)[C@]5(C)[C@@H](C7=CC(=O)O/C7=C\c7ccc(Cl)cc7)CC[C@]65O)C4)O[C@@H]3C)O[C@@H]2C)C[C@H](O)[C@@H]1O | 23.8 µM | – | – | 1.21 | 40.1 µM | 0.72 | – | inactive | – | 28.7 µM | – | inactive | inactive |
| C[C@H]1O[C@@H](O[C@H]2[C@@H](O)C[C@H](O[C@H]3[C@@H](O)C[C@H](O[C@H]4CC[C@@]5(C)[C@H](CC[C@@H]6[C@@H]5C[C@@H](O)[C@]5(C)[C@@H](C7=CC(=O)O/C7=C\c7ccc(F)cc7)CC[C@]65O)C4)O[C@@H]3C)O[C@@H]2C)C[C@H](O)[C@@H]1O | 41.4 µM | – | – | 1.31 | 60.9 µM | 0.89 | 0.66 µM | inactive | 0.34 µM | 54.1 µM | – | – | – |
| COc1ccc(/C=C2\OC(=O)C=C2[C@H]2CC[C@]3(O)[C@@H]4CC[C@@H]5C[C@@H](O[C@H]6C[C@H](O)[C@H](O[C@H]7C[C@H](O)[C@H](O[C@H]8C[C@H](O)[C@H](O)[C@@H](C)O8)[C@@H](C)O7)[C@@H](C)O6)CC[C@]5(C)[C@H]4C[C@@H](O)[C@]23C)cc1 | 79 µM | – | – | 0.99 | 61.4 µM | 1.27 | 0.46 µM | inactive | 0.57 µM | 78.3 µM | – | – | – |

Source: ChEMBL document CHEMBL3593198 (Bioorg Med Chem, 2015)
